Laboratory results published in US9156877B2, “17-hydroxy-17-pentafluorethyl-estra-4,9(10)-dien-11-benzylidene derivatives, methods for the production thereof and use thereof for treating diseases” (Bayer Intellectual Property GmbH, priority 2009, dated 2015).
Converted amounts (≈) assume the structure as drawn.

What was measured:
[1] = compared to the compounds of the invention; cited from earlier work
[2] = compared to the compounds of the invention; cited from earlier work; remark: listed apart in the source
[3] = molecular target: T1, human progesterone receptor A (Homo sapiens, UniProt P06401); assay: Progesterone receptor-antagonistic action in stably transfected SK-N-MC cells with MMTV-LUC reporter (PR-A); format: cell-based; conditions: antagonistic potency against 0.1 nmol/l promegestone, 24 hours, luciferase
T1 construct: expressed in transfected cells; host or cells: SK-N-MC human neuroblastoma cells, stably transfected with pRChPR-A-neo and pMMTV-LUC
T1 sequence (P06401 1-769 isoform P06401-2): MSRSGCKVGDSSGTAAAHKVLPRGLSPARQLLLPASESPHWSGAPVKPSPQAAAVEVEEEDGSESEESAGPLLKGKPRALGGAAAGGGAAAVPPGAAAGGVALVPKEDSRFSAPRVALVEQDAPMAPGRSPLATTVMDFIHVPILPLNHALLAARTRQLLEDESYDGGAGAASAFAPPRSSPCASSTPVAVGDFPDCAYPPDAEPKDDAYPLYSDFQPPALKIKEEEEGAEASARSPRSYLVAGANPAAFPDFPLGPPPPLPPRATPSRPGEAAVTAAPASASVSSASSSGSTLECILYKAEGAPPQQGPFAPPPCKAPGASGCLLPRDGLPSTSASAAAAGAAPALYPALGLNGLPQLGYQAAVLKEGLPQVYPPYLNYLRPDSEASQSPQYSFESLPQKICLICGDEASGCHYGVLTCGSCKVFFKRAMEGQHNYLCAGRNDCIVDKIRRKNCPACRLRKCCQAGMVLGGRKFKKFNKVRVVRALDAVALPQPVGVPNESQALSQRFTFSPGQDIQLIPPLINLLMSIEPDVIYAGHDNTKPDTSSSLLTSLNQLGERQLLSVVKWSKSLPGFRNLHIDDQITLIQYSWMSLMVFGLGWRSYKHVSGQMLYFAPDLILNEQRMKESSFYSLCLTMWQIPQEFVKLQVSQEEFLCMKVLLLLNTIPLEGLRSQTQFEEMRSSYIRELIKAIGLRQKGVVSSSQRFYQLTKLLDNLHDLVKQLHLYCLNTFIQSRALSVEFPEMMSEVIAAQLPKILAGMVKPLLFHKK
How it was run: (§1)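 SK-N-MC neuroblastoma cells stably expressing human PR-A or PR-B plus MMTV-LUC reporter, treated 24 h with test compound (0.01 nmol/l–[…]). Antagonist mode used co-treatment with 0.1 nmol/l promegestone; luciferase in lysates read as RLU, expressed as % efficacy and IC50/EC50.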

[4] = molecular target: T2, human progesterone receptor B (Homo sapiens, UniProt P06401); assay: Progesterone receptor-antagonistic action in stably transfected SK-N-MC cells with MMTV-LUC reporter (PR-B); format: cell-based; conditions: antagonistic potency against 0.1 nmol/l promegestone, 24 hours, luciferase
T2 construct: expressed in transfected cells; host or cells: SK-N-MC human neuroblastoma cells, stably transfected with pRChPR-B-neo and pMMTV-LUC
T2 sequence (P06401 1-933): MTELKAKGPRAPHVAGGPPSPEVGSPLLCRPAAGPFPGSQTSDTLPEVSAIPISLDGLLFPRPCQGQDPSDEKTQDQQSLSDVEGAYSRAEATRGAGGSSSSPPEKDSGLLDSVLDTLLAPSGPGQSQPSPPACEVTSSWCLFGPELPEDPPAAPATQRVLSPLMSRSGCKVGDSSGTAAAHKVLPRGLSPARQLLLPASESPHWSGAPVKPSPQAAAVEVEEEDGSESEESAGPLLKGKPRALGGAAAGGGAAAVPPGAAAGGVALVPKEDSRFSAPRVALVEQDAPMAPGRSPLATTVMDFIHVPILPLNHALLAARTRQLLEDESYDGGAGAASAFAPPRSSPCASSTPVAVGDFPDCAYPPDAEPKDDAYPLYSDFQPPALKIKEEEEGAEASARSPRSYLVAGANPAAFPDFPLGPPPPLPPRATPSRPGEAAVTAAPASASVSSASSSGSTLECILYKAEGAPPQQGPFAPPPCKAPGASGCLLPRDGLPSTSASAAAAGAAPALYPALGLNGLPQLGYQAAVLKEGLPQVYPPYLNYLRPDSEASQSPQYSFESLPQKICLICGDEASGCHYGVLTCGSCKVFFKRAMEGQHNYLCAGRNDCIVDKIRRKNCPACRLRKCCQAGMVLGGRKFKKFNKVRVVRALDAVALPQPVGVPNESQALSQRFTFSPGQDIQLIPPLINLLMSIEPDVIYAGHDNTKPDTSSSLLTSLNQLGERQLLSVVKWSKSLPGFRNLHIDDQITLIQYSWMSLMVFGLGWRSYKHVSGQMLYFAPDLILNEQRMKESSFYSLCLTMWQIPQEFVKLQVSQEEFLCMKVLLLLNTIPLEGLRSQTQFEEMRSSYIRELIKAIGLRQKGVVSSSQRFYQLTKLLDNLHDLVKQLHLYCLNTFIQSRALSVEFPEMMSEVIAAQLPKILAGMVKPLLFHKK
How it was run: as §1

[5] = Metabolic stability in rat liver microsomes; format: in vitro ADME; conditions: for Predicted clearance [l/h/kg] Rat: well-stirred model
How it was run: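 Liver microsomes (solution at 0.5 mg/ml protein before cofactor addition) with 1 μM compound (final) and an NADPH-generating system at 37 °C, 100 mM phosphate pH 7.4, were sampled at 6 time points (2-60 min), methanol-quenched and analysed by LC-MS/MS. Half-life gave intrinsic clearance, and Fmax assumed 100% absorption and purely microsomal first pass.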

[6] = Solubility in aqueous medium at pH 7.4; format: physicochemical; conditions: for solubility (in words): aqueous medium under physiological conditions; for solubility: aqueous medium, pH 7.4, aqueous buffer
Excerpt: In addition, some compounds have an unusually good solubility, for this active ingredient class, in aqueous medium under physiological conditions (Table 2).

[7] = Metabolic stability in human liver microsomes; format: in vitro ADME; conditions: for Predicted clearance [l/h/kg] Human: 1 μM, well-stirred model
How it was run: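 Human liver microsomes (0.5 mg/ml protein) were incubated with compound at 1 μM final and an NADPH-generating system in 100 mM phosphate pH 7.4 at 37 °C. Six samples (2–60 min) were methanol-quenched and measured by LC-MS/MS. Degradation half-life gave intrinsic clearance; Fmax assumed 100% absorption and first pass equal to microsomal metabolism.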

[8] = tested on: pregnant rats; assay: Abortion test on female rats; format: in vivo, rat; conditions: d5-d7 p.c., autopsy d9 p.c.
Description: Abortion Test on Female Rats
The action of progesterone and of the progesterone receptor is a fundamental precondition for successful pregnancy or gestation in mammals. The progesterone-antagonistic action of the inventive compounds was tested on pregnant rats (6 rats per group) on days 5 to 7 post coitum under conventional housing and feeding conditions.
After successful mating, the pregnant animals (presence of sperm in the vaginal smear on day 1 of pregnancy=d1 p.c.) were randomized and divided into the treatment group and the control group. The animals then each received subcutaneously or orally 0.15; 0.5; 1.5 or 5 mg/kg of the test compound or 1.0 ml/kg of vehicle (benzyl benzoate/castor oil: 1+4 [v/v]) daily from day 5 to day 7 (d5-d7 p.c.).
Autopsy was conducted on day 9 (d9 p.c.). As a characteristic of progesterone receptor-antagonistic action, the uterus was examined for the presence of nidation sites. Complete absence, or else the presence of pathological, haemorrhagic or otherwise abnormal nidation sites, on day 9 (d9 p.c.) was considered as abortion.

SMILES: CC(=O)c1ccc(C2CC3(C)C(CCC3(O)C(F)(F)C(F)(F)F)C3CCC4=CC(=O)CCC4=C23)cc1 (stereo not drawn) [11-β-(4-acetylphenyl)-20,20,21,21,21-pentafluoro-17-hydroxynor-17-pregna-4,9-dien-3-one]
- in vivo half-life (in words) [1]: relatively short
- water solubility (in words) [2]: poor

SMILES: C[C@]12C[C@H](c3ccc(/C=C/C=C/C(=O)O)cc3)C3=C4CCC(=O)C=C4CC[C@H]3[C@@H]1CC[C@@]2(O)C(F)(F)C(F)(F)F [Example 17, (2E,4E)-5-[4-((8S,11R,13S,14S,17S)-17-hydroxy-13-methyl-3-oxo-17-pentafluoroethyl-2,3,6,7,8,11,12,13,14,15,16,17-dodecahydro-1H-cyclopenta[a]phenanthren-11-yl)phenyl]penta-2,4-dienoic acid]
- IC50 [3]: 0.1 nM
- IC50 [4]: 0.7 nM
- Predicted Fmax [%] (maximum oral bioavailability) Rat [5]: 91%
- Predicted clearance [l/h/kg] Rat [5]: 0.4 L/h/kg
- solubility (in words) [6]: improved
- solubility [6]: > 0.188 mg/mL
- Predicted Fmax [%] (maximum oral bioavailability) Human [7]: 33%
- Predicted clearance [l/h/kg] Human [7]: 0.89 L/h/kg
- Abortion rate [%] ([8]; daily dose 0.5 mg/kg p.o.): 0%
- Abortion rate [%] ([8]; daily dose 1.5 mg/kg p.o.): 16.7%
- Abortion rate [%] ([8]; daily dose 5.0 mg/kg p.o.): 100.0%

SMILES: C[C@]12C[C@H](c3ccc(/C=C/c4ccc(C(=O)O)cc4)cc3)C3=C4CCC(=O)C=C4CC[C@H]3[C@@H]1CC[C@@]2(O)C(F)(F)C(F)(F)F [Example 29, 4-{(E)-2-[4-((8S,11R,13S,14S,17S)-17-hydroxy-13-methyl-3-oxo-17-pentafluoroethyl-2,3,6,7,8,11,12,13,14,15,16,17-dodecahydro-1H-cyclopenta[a]phenanthren-11-yl)phenyl]vinyl}benzoic acid]
- IC50 [3]: 0.08 nM
- IC50 [4]: 0.09 nM
- Predicted Fmax [%] (maximum oral bioavailability) Rat [5]: 100%
- Predicted clearance [l/h/kg] Rat [5]: 0.0 L/h/kg
- solubility (in words) [6]: improved
- solubility [6]: 0.102 mg/mL (≈ 166 µM)
- Predicted Fmax [%] (maximum oral bioavailability) Human [7]: 94%
- Predicted clearance [l/h/kg] Human [7]: 0.08 L/h/kg
- Abortion rate [%] ([8]; daily dose 0.5 mg/kg p.o.): 0%
- Abortion rate [%] ([8]; daily dose 1.5 mg/kg p.o.): 16.7%
- Abortion rate [%] ([8]; daily dose 5.0 mg/kg p.o.): 100.0%
